Measured values as given in US20210198277A1, “AMINE-SUBSTITUTED ARYL OR HETEROARYL COMPOUNDS” (Epizyme, Inc., priority 2016, published 2021).

molecular target: T1, EHMT2 (Homo sapiens, UniProt Q96KQ7); assay: MDA-MB-231 H3K9me2 in-cell Western assay (EHMT2 ICW); assay type: cell-based; conditions: Table III; MDA-MB-231 H3K9me2 in-cell Western; read-out: EHMT2 ICW (IC50 μM)
T1 construct: host or cells: MDA-MB-231
T1 sequence (Q96KQ7 1-1210): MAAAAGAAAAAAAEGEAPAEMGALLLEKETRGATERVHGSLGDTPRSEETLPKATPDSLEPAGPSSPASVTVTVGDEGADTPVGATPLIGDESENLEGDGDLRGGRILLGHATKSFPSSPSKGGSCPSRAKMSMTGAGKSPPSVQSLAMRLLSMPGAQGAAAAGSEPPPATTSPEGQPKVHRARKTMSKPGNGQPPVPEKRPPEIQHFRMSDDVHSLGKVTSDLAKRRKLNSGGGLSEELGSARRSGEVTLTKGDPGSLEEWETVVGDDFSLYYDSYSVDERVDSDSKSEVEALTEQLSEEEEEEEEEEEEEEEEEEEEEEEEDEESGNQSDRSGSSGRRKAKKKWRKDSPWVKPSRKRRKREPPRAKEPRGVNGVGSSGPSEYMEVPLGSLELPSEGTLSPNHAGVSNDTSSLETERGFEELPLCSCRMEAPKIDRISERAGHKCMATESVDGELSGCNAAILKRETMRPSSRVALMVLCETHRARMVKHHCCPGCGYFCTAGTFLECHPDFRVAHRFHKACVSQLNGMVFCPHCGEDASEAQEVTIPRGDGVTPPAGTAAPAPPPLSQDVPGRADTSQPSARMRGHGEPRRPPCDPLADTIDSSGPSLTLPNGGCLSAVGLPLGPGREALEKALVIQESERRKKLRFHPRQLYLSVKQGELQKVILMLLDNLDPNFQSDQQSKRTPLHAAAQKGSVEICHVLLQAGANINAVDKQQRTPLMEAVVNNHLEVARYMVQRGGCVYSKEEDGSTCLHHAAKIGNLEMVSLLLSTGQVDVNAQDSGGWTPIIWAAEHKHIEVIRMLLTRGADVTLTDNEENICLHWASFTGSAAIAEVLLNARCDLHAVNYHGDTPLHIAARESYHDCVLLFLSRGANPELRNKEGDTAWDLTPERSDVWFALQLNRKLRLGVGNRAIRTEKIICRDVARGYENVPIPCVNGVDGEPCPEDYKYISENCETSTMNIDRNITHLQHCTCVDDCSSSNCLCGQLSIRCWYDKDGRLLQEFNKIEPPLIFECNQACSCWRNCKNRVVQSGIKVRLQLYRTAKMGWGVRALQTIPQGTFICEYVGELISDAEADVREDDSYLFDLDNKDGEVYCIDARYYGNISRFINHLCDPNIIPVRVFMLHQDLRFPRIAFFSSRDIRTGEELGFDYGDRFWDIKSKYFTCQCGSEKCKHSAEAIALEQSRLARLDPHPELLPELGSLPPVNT
Procedure, shortened: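 MDA-MB-231 cells (3,000/well) seeded onto compound, kept 30 min at room temperature, then 48 h at 37 °C, 5% CO2. IC50 from triplicate wells, four-parameter fit.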

SMILES	IC50
CNc1cc(C)nc(Nc2ccc(OC)c(O[C@H]3C[C@@H](N(C)C)C3)c2)n1 (single isomer, unassigned) [Compound 317, N^2-(3-((1s,3s)-3-(dimethylamino)cyclobutoxy)-4-methoxyphenyl)-N^4,6-dimethylpyrimidine-2,4-diamine]	1 to 10 µM
CNc1ccnc(Nc2ccc(OC)c(OC[C@@H]3CN(C)C[C@H]3C)c2)n1 (single isomer, unassigned) [Compound 438]	> 10 µM
CNc1ccnc(Nc2ccc(OC)c(OC[C@H]3CN(C)C[C@@H]3C)c2)n1 (single isomer, unassigned) [Compound 439]	0.1 to 1 µM
CNc1ccnc(Nc2cccc(COCCN3CCCC3)n2)c1 [Compound 267, N^4-methyl-N^2-(6-((2-(pyrrolidin-1-yl)ethoxy)methyl)pyridin-2-yl)pyridine-2,4-diamine]	> 10 µM
CNc1cc(Nc2cccc(COCCN3CCCC3)n2)ccn1 [Compound 268, N^2-methyl-N^4-(6-((2-(pyrrolidin-1-yl)ethoxy)methyl)pyridin-2-yl)pyridine-2,4-diamine]	> 10 µM
CNc1nc(C2CCN(C)CC2)c2cc(OC)c(OCCCN3CCCC3)cc2n1 [Compound 270]	0.1 to 1 µM
CNc1ccnc(Nc2ccc(OC)c(OCCCN3CC[C@H](F)C3)c2)n1 [Compound 271]	> 10 µM
CNc1cc(Nc2ccc(OC)c(OCCCN3CCCC3)c2)ncc1F [Compound 272, 5-fluoro-N^2-(4-methoxy-3-(3-(pyrrolidin-1-yl)propoxy)phenyl)-N^4-methylpyridine-2,4-diamine]	1 to 10 µM
CNc1cc(Nc2ccc(OC)c(OCCCN3CCCC3)c2)cc(C(F)(F)F)n1 [Compound 273]	> 10 µM
CNc1ccnc(Nc2cccc(N3CCC(N)C3=O)c2)n1 (stereo not shown) [Compound 274]	> 10 µM
CNc1ccnc(Nc2cccc(N3CCC(N(C)C)C3=O)c2)n1 (stereo not shown) [Compound 275]	> 10 µM
CNc1ccnc(Nc2cccc(OCC(F)CN3CCCC3)c2)n1 (stereo not shown) [Compound 276, N^2-(3-(2-fluoro-3-(pyrrolidin-1-yl)propoxy)phenyl)-N^4-methylpyrimidine-2,4-diamine]	> 10 µM
CNc1ccnc(Nc2cccc(OCC(F)(F)CN3CCCC3)c2)n1 [Compound 277, N^2-(3-(2,2-difluoro-3-(pyrrolidin-1-yl)propoxy)phenyl)-N^4-methylpyrimidine-2,4-diamine]	> 10 µM
COc1ccc(Nc2nccc(NCC3CC(C)(C)NC(C)(C)C3)n2)cc1OCCCN1CCCC1 [Compound 278]	1 to 10 µM
CNc1ccnc(Nc2cccc(C(C)OCCN3CCCC3)c2)n1 (stereo not shown) [Compound 279, N^4-methyl-N^2-(3-(1-(2-(pyrrolidin-1-yl)ethoxy)ethyl)phenyl) pyrimidine-2,4-diamine]	> 10 µM
CCN(CC)CCCOc1cc(Nc2nccc(NC)n2)ccc1OC [Compound 280, N^2-(3-(3-(diethylamino)propoxy)-4-methoxyphenyl)-N^4-methylpyrimidine-2,4-diamine]	1 to 10 µM
CNc1ccnc(Nc2ccc(OC)c(OCCCN3CCC(S(C)(=O)=O)C3)c2)n1 (stereo not shown) [Compound 282]	> 10 µM
CNc1ccnc(Nc2ccc(OC)c(OCCCN3CCC(OC)C3)c2)n1 (stereo not shown) [Compound 283, N^2-(4-methoxy-3-(3-(3-methoxypyrrolidin-1-yl)propoxy)phenyl)-N^4-methylpyrimidine-2,4-diamine]	0.1 to 1 µM
CNc1ccnc(Nc2ccc(OC)c(OCCCN3CCC4(COC4)C3)c2)n1 [Compound 284]	> 10 µM
CNc1ccnc(Nc2ccc(OC)c(OCCCN3CCC(C(F)(F)F)C3)c2)n1 (stereo not shown) [Compound 285, N^2-(4-methoxy-3-(3-(3-(trifluoromethyl)pyrrolidin-1-yl)propoxy)phenyl)-N^4-methylpyrimidine-2,4-diamine]	> 10 µM

SMILES	IC50
CNc1ccnc(Nc2ccc(OC)c(OCCCN3CCC(O)C3)c2)n1 (stereo not shown) [Compound 286, 1-(3-(2-methoxy-5-((4-(methylamino)pyrimidin-2-yl)amino)phenoxy)propyl)pyrrolidin-3-ol]	0.1 to 1 µM
CNc1ccnc(Nc2ccc(OC)c(OCCCN3CCC(C#N)C3)c2)n1 (stereo not shown) [Compound 287, 1-(3-(2-methoxy-5-((4-(methylamino)pyrimidin-2-yl)amino)phenoxy)propyl)pyrrolidine-3-carbonitrile]	> 10 µM
CNc1ccnc(Nc2ccc(OC)c(OCCC3CCCN3C)c2)n1 (stereo not shown) [Compound 288, N^2-(4-methoxy-3-(2-(1-methylpyrrolidin-2-yl)ethoxy)phenyl)-N^4-methylpyrimidine-2,4-diamine]	1 to 10 µM
CNc1ccnc(Nc2ccc(OC)c(OCC3CCCN3C)c2)n1 (stereo not shown) [Compound 289, N^2-(4-methoxy-3-((1-methylpyrrolidin-2-yl)methoxy)phenyl)-N^4-methylpyrimidine-2,4-diamine]	0.1 to 1 µM
CNc1ccnc(Nc2ccc(OC)c(OCCCN3CCCC3C)c2)n1 (stereo not shown) [Compound 290, N^2-(4-methoxy-3-(3-(2-methylpyrrolidin-1-yl)propoxy)phenyl)-N^4-methylpyrimidine-2,4-diamine]	1 to 10 µM
CCNC(=O)c1cc(Nc2nccc(NC)n2)ccn1 [Compound 291, N-ethyl-4-((4-(methylamino)pyrimidin-2-yl)amino)picolinamide]	> 10 µM
CNc1ccnc(Nc2ccc(OC)c(OCCCN3CCC(C)C3)c2)n1 (stereo not shown) [Compound 293, N^2-(4-methoxy-3-(3-(3-methylpyrrolidin-1-yl)propoxy)phenyl)-N^4-methylpyrimidine-2,4-diamine]	1 to 10 µM
CNc1ccnc(Nc2cccc3oc(CCN(C)C)nc23)n1 [Compound 295]	> 10 µM
CNc1ccnc(Nc2cccc(N3CC(N)CC3=O)c2)n1 (stereo not shown) [Compound 296]	> 10 µM
CNc1ccnc(Nc2cccc(N3CCC(N)C3)c2)n1 (stereo not shown) [Compound 297]	> 10 µM
CNc1ccnc(Nc2ccc(OC)c(OCCCN3CC4CC4C3)c2)n1 (stereo not shown) [Compound 298, N^2-(3-(3-(3-azabicyclo[3.1.0]hexan-3-yl)propoxy)-4-methoxyphenyl)-N^4-methylpyrimidine-2,4-diamine]	0.1 to 1 µM
CNc1ccnc(Nc2ccc(OC)c(OC[C@H](O)CN3CCCC3)c2)n1 [Compound 299, (R)-1-(2-methoxy-5-((4-(methylamino)pyrimidin-2-yl)amino)phenoxy)-3-(pyrrolidin-1-yl)propan-2-ol]	0.1 to 1 µM
CNc1ccnc(Nc2ccc(OC)c(OC[C@@H](O)CN3CCCC3)c2)n1 [Compound 300, (S)-1-(2-methoxy-5-((4-(methylamino)pyrimidin-2-yl)amino)phenoxy)-3-(pyrrolidin-1-yl)propan-2-ol]	0.1 to 1 µM
CNc1cc(C)nc(Nc2cc(F)c(OC)c(OCCCN3CCCC3)c2)n1 [Compound 301, N2-(3-fluoro-4-methoxy-5-(3-(pyrrolidin-1-yl)propoxy)phenyl)-N4,6-dimethylpyrimidine-2,4-diamine]	> 10 µM
CNc1cc(C)nc(Nc2cc(OCCCN3CCCC3)c(OC)cc2F)n1 [Compound 302, N^2-(2-fluoro-4-methoxy-5-(3-(pyrrolidin-1-yl)propoxy)phenyl)-N^4,6-dimethylpyrimidine-2,4-diamine]	> 10 µM
CNc1cc(C)nc(Nc2cc(OCCCN3CCCC3)c(OC)cn2)n1 [Compound 303, N^2-(5-methoxy-4-(3-(pyrrolidin-1-yl)propoxy)pyridin-2-yl)-N^4,6-dimethylpyrimidine-2,4-diamine]	1 to 10 µM
COc1cnc(Nc2nccc3[nH]ccc23)cc1OCCCN1CCCC1 [Compound 304]	0.1 to 1 µM
CNc1ccnc(Nc2cc(OCCCN3CCCC3)c(OC)cn2)c1 [Compound 305, N^2-(5-methoxy-4-(3-(pyrrolidin-1-yl)propoxy)pyridin-2-yl)-N^4-methylpyridine-2,4-diamine]	0.1 to 1 µM
CNc1nc(C)cc(Nc2cc(OCCCN3CCCC3)c(OC)cn2)n1 [Compound 306, N^4-(5-methoxy-4-(3-(pyrrolidin-1-yl)propoxy)pyridin-2-yl)-N^2,6-dimethylpyrimidine-2,4-diamine]	> 10 µM
CNc1cc(C)nc(Nc2cc(OCCCN3CCCC3)c(OC)cn2)c1 [Compound 307, N^2-(5-methoxy-4-(3-(pyrrolidin-1-yl)propoxy)pyridin-2-yl)-N^4,6-dimethylpyridine-2,4-diamine]	0.1 to 1 µM
